From patent publication US8802597B2, “Herbicidal pyrimidines” (E I du Pont de Nemours and Company, priority 2003, dated 2014)
Values belong to the compound of their own block, whether it stands above or below them.

Columns and labels:
[1] = tested on: duck salad (Heteranthera limosa); assay: Test C flooded paddy test; type: in vivo; settings: Flood, scale 0 to 100
Method in brief: (§1)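 Visual rating, 0 (no effect) to 100 (complete control), versus untreated plants. Flooded paddy; 2-leaf stage at treatment; greenhouse hold 12–14 d. Dash = no test result.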

[2] = tested on: rice (Oryza sativa); assay: Test C flooded paddy test; type: in vivo; settings: Flood, scale 0 to 100
Method in brief: as §1

[3] = tested on: umbrella sedge (Cyperus difformis); assay: Test C flooded paddy test; type: in vivo; settings: Flood, scale 0 to 100
Method in brief: as §1

[4] = tested on: barnyardgrass (Echinochloa crus-galli); assay: Test C flooded paddy test; type: in vivo; settings: Flood
Method in brief: as §1

[5] = tested on: morningglory (Ipomoea coccinea); assay: Test C pre/postemergence; type: in vivo; settings: for Morningglory plant response rating / Plant response rating, Morningglory: Postemergence; for Morningglory plant response rating: scale 0 to 100 (0 no effect, 100 complete control)
Method in brief: (§2)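 Test compounds, formulated in a non-phytotoxic solvent mix with surfactant, were applied to freshly planted seeds and, at the same time, to emerged plants at 1- to 4-leaf stage (2 to 18 cm). After 12 to 14 days in the greenhouse, response was scored visually versus controls, 0 = no effect, 100 = complete control.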

[6] = tested on: corn (Zea mays); assay: Test C pre/postemergence; type: in vivo; settings: for Corn plant response rating / Plant response rating, Corn: Postemergence; for Corn plant response rating: scale 0 to 100 (0 no effect, 100 complete control)
Method in brief: as §2

[7] = tested on: woolly cupgrass (Eriochloa villosa); assay: Test C pre/postemergence; type: in vivo; settings: for Cupgrass, Woolly plant response rating / Plant response rating, Cupgrass, Woolly: Postemergence; for Cupgrass, Woolly plant response rating: scale 0 to 100 (0 no effect, 100 complete control)
Method in brief: as §2

[8] = tested on: smallflower umbrella sedge (Cyperus difformis); assay: Test E flooded paddy water application; type: in vivo; settings: Flood, 21 days, scale 0 to 100 (0 no effect, 100 complete control)
Method in brief: (§3)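 Weeds sown in sterilized Tama silt loam (2.6% organic matter), greenhouse 29.5/26.7° C, 16-h photoperiod; at 2.0–2.5-leaf stage pots flooded to 3 cm and compound added to paddy water. Visual rating vs untreated controls after 21 days, 0 (no effect) to 100 (complete control).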

[9] = tested on: ducksalad (Heteranthera limosa); assay: Test E flooded paddy water application; type: in vivo; settings: Flood, 21 days, scale 0 to 100 (0 no effect, 100 complete control)
Method in brief: as §3

[10] = tested on: junglerice (Echinochloa colona); assay: Test E flooded paddy water application; type: in vivo; settings: Flood, 21 days, scale 0 to 100 (0 no effect, 100 complete control)
Method in brief: as §3

[11] = tested on: water seeded rice seedlings (Oryza sativa cv. ‘Japonica-M202’); assay: Test E flooded paddy water application; type: in vivo; settings: Flood, 21 days, scale 0 to 100 (0 no effect, 100 complete control)
Method in brief: as §3

[12] = 500 g ai/ha, scale 0 to 100 (0 no effect, 100 complete control)

melting point: 182 to 185 °C
SMILES: Nc1nc(C2CC2)nc(CO)c1Br [Compound 21]

SMILES: Nc1nc(C2CC2)nc(C=O)c1Br [Compound 26]
Plant response rating, Ducksalad ([1]; 62 g ai/ha): 40
Plant response rating, Ducksalad ([1]; 125 g ai/ha): 40
Plant response rating, Ducksalad ([1]; 250 g ai/ha): 40
Plant response rating, Ducksalad ([1]; 500 g ai/ha): 40
Plant response rating, Rice ([2]; 62 g ai/ha): 0
Plant response rating, Rice ([2]; 125 g ai/ha): 0
Plant response rating, Rice ([2]; 250 g ai/ha): 20
Plant response rating, Rice ([2]; 500 g ai/ha): 25
Plant response rating, Sedge, Umbrella ([3]; 62 g ai/ha): 0
Plant response rating, Sedge, Umbrella ([3]; 125 g ai/ha): 0
Plant response rating, Sedge, Umbrella ([3]; 250 g ai/ha): 20
Plant response rating, Sedge, Umbrella ([3]; 500 g ai/ha): 20
Plant response rating, Barnyardgrass ([4]; 62 g ai/ha, scale 0 to 100): 0
Plant response rating, Barnyardgrass ([4]; 125 g ai/ha, scale 0 to 100): 0
Plant response rating, Barnyardgrass ([4]; 250 g ai/ha, scale 0 to 100): 0
Plant response rating, Barnyardgrass [4, 12]: 0
pest or weed control at 62 g/ha ([5]; Ipomoea, pre-emergence, Preemergence, 62 g ai/ha, scale 0 to 100, 0 no effect, 100 complete control, read-out: Plant response rating, Morningglory): 0%
pest or weed control at 125 g/ha ([5]; Ipomoea, pre-emergence, Preemergence, 125 g ai/ha, scale 0 to 100, read-out: Plant response rating, Morningglory): 5%
pest or weed control at 250 g/ha ([5]; Ipomoea, pre-emergence, Preemergence, 250 g ai/ha, scale 0 to 100, read-out: Plant response rating, Morningglory): 85%
pest or weed control at 500 g/ha ([5]; Ipomoea, pre-emergence, Preemergence, 500 g ai/ha, scale 0 to 100, read-out: Plant response rating, Morningglory): 90%
Corn plant response rating (crop injury, 0 = no effect, 100 = complete kill) at 62 g/ha ([6]; Zea mays, pre-emergence, Preemergence, 62 g ai/ha, scale 0 to 100, 0 no effect, 100 complete control, read-out: Plant response rating, Corn): 0%
Corn plant response rating (crop injury, 0 = no effect, 100 = complete kill) at 125 g/ha ([6]; Zea mays, pre-emergence, Preemergence, 125 g ai/ha, scale 0 to 100, read-out: Plant response rating, Corn): 0%
Corn plant response rating (crop injury, 0 = no effect, 100 = complete kill) at 250 g/ha ([6]; Zea mays, pre-emergence, Preemergence, 250 g ai/ha, scale 0 to 100): 0%
Corn plant response rating (crop injury, 0 = no effect, 100 = complete kill) at 500 g/ha ([6]; Zea mays, pre-emergence, Preemergence, 500 g ai/ha, scale 0 to 100): 20%
pest or weed control at 62 g/ha ([7]; Eriochloa villosa, pre-emergence, Preemergence, 62 g ai/ha, scale 0 to 100, 0 no effect, 100 complete control, read-out: Plant response rating, Cupgrass, Woolly): 0%
pest or weed control at 125 g/ha ([7]; Eriochloa villosa, pre-emergence, Preemergence, 125 g ai/ha, scale 0 to 100, read-out: Plant response rating, Cupgrass, Woolly): 0%
pest or weed control at 250 g/ha ([7]; Eriochloa villosa, pre-emergence, Preemergence, 250 g ai/ha, scale 0 to 100, read-out: Plant response rating, Cupgrass, Woolly): 0%
pest or weed control at 500 g/ha ([7]; Eriochloa villosa, pre-emergence, Preemergence, 500 g ai/ha, scale 0 to 100, read-out: Plant response rating, Cupgrass, Woolly): 0%

melting point: 69 to 70 °C
SMILES: CCOC(=O)c1nc(C(C)(C)C)nc(N)c1Br [Compound 36]

SMILES: CCOC(=O)c1nc(-c2ccc(Cl)cc2)nc(N)c1Br [Compound 37]
Plant response rating, Ducksalad ([1]; 62 g ai/ha): 95
Plant response rating, Ducksalad ([1]; 125 g ai/ha): 95
Plant response rating, Ducksalad ([1]; 250 g ai/ha): 100
Plant response rating, Ducksalad ([1]; 500 g ai/ha): 100
Plant response rating, Rice ([2]; 62 g ai/ha): 0
Plant response rating, Rice ([2]; 125 g ai/ha): 0
Plant response rating, Rice ([2]; 250 g ai/ha): 0
Plant response rating, Rice ([2]; 500 g ai/ha): 0
Plant response rating, Sedge, Umbrella ([3]; 62 g ai/ha): 85
Plant response rating, Sedge, Umbrella ([3]; 125 g ai/ha): 85
Plant response rating, Sedge, Umbrella ([3]; 250 g ai/ha): 90
Plant response rating, Sedge, Umbrella ([3]; 500 g ai/ha): 95
Plant response rating, Barnyardgrass ([4]; 62 g ai/ha, scale 0 to 100): 0
Plant response rating, Barnyardgrass ([4]; 125 g ai/ha, scale 0 to 100): 0
Plant response rating, Barnyardgrass ([4]; 250 g ai/ha, scale 0 to 100): 0
Plant response rating, Barnyardgrass [4, 12]: 0
Sedge, Umbrella plant response rating ([8]; 32 g ai/ha): 50
Sedge, Umbrella plant response rating ([8]; 64 g ai/ha): 50
Sedge, Umbrella plant response rating ([8]; 125 g ai/ha): 65
Sedge, Umbrella plant response rating ([8]; 250 g ai/ha): 95
Plant response rating, Sedge, Umbrella ([8]; 16 g ai/ha): 30
Ducksalad plant response rating ([9]; 32 g ai/ha): 100
Ducksalad plant response rating ([9]; 64 g ai/ha): 100
Ducksalad plant response rating ([9]; 125 g ai/ha): 100
Ducksalad plant response rating ([9]; 250 g ai/ha): 100
Plant response rating, Ducksalad ([9]; 16 g ai/ha): 80
Junglerice plant response rating ([10]; 32 g ai/ha): 0
Junglerice plant response rating ([10]; 64 g ai/ha): 0
Junglerice plant response rating ([10]; 125 g ai/ha): 0
Junglerice plant response rating ([10]; 250 g ai/ha): 0
Plant response rating, Junglerice ([10]; 16 g ai/ha): 0
Rice, Water Seeded plant response rating ([11]; 32 g ai/ha): 0
Rice, Water Seeded plant response rating ([11]; 64 g ai/ha): 0
Rice, Water Seeded plant response rating ([11]; 125 g ai/ha): 0
Rice, Water Seeded plant response rating ([11]; 250 g ai/ha): 0
Plant response rating, Rice, Water Seeded ([11]; 16 g ai/ha): 0
Morningglory plant response rating ([5]; 62 g ai/ha): 0
Morningglory plant response rating ([5]; 125 g ai/ha): 65
Plant response rating, Morningglory ([5]; 250 g ai/ha, scale 0 to 100): 80
Plant response rating, Morningglory ([5]; 500 g ai/ha, scale 0 to 100): 95
Corn plant response rating ([6]; 62 g ai/ha): 0
Corn plant response rating ([6]; 125 g ai/ha): 10
Plant response rating, Corn ([6]; 250 g ai/ha, scale 0 to 100): 15
Plant response rating, Corn ([6]; 500 g ai/ha, scale 0 to 100): 25
Cupgrass, Woolly plant response rating ([7]; 62 g ai/ha): 0
Cupgrass, Woolly plant response rating ([7]; 125 g ai/ha): 0
Plant response rating, Cupgrass, Woolly ([7]; 250 g ai/ha, scale 0 to 100): 0
Plant response rating, Cupgrass, Woolly ([7]; 500 g ai/ha, scale 0 to 100): 45
